Reference: paper PMC13453992, “Comparison of ex vivo placenta perfusion and in vitro BeWo b30 cell models for assessing transfer of developmental and reproductive toxic compounds” (Archives of Toxicology, 2026)

Test: Fraction unbound in placental perfusion buffer by Rapid Equilibrium Dialysis
Type: in vitro ADME
Details: placenta perfusion buffer with albumin; RED 4 hours at 37 °C
Procedure: Free drug concentrations in perfusion buffer were determined using Rapid Equilibrium Dialysis (RED) single use plates (ThermoScientific, Rockford, USA) according to the manufacturer’s instructions. In short, placental perfusion buffer samples from multiple timepoints were loaded on one side of the RED and clean placenta perfusion buffer without albumin was added to the other side. This was incubated on a ThermoMixer C (Eppendorf Nederland B.V., Nijmegen, The Netherlands) at 250 rpm for 4 hours at 37 °C. The average from all measurements was taken to determine the average fraction unbound for each ex vivo placenta perfusion experiment.

Structure (SMILES): Cc1cc(=O)n(-c2ccccc2)n1C [Antipyrine, antipyrine]
- Fraction unbound: 95 ± 2%
